Patent US20220396569A1 (Carmot Therapeutics, Inc., priority 2021, published 2022)

What follows are molecules tested against T1, human GLP-1 receptor (Homo sapiens, UniProt P43220) (assay: GLP-1R cAMP Assay (HitHunter cAMP accumulation)). Conditions: EC50, cAMP accumulation, CHO cells stably overexpressing human GLP-1 receptor, 30 min treatment.
T1 construct: expressed in transfected cells
Format: cell-based
Description: cAMP accumulation was measured in Chinese hamster ovary (CHO) cells stably overexpressing the human GLP-1 receptor using the HitHunter cAMP Assay for Small Molecules Kit (Eurofins). Briefly, cells were grown in Ham's F12 Nutrient Mix with 10% FBS, and lifted with Cell Dissociation Buffer, Enzyme free, PBS based (ThermoFisher). Cells were pelleted, and resuspended in Hank's buffered saline solution with 10 mM HEPES, and 625 μM 3-isobutyl-1-methylxanthine. The anti-cAMP antibody reagent was then added to cells at a 1:2 ratio and 5 μL of mixture was seeded in 384-well small volume white assay plates, at 10,000 cells/well. Cells were then treated with 50 nL compound using an ECHO 550 acoustic dispenser (Labcyte) in a 20-point dose response format in triplicate for 30 min. Cells were then lysed, and detection reagents added according to the manufacturer's protocol. After overnight incubation, luminescence was measured using a Perkin Elmer Envision plate reader. Dose response curves were analyzed using GraphPad Prism 9.0. […]

T1 sequence (P43220 24-463): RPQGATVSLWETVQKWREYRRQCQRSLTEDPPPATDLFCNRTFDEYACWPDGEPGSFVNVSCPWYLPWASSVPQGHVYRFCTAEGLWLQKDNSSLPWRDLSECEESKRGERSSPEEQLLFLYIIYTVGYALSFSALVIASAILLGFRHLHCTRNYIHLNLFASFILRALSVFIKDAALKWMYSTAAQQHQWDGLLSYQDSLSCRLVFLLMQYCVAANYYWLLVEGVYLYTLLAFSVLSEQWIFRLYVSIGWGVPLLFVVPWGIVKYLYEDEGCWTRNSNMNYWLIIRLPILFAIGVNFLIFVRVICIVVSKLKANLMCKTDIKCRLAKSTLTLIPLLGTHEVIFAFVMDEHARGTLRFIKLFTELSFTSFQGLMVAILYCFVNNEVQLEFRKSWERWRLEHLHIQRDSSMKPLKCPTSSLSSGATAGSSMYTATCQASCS

| SMILES | EC50 |
| --- | --- |
| O=C(O)c1cc(F)c2nc(CN3CC[C@H](Oc4ccnc(COc5ccc(Cl)cc5F)n4)C3)n(CC3CCO3)c2c1 (stereo partly drawn) [Compound 361, 2-{[(3S)-3-({2-[(4-chloro-2-fluorophenoxy)methyl]pyrimidin-4-yl}oxy)pyrrolidin-1-yl]methyl}-4-fluoro-1-[(oxetan-2-yl)methyl]-1H-1,3-benzodiazole-6-carboxylic acid] | < 50 nM |

Same assay, conditions: cAMP accumulation, CHO cells stably overexpressing human GLP-1 receptor, 30 min treatment; read-out: EC50

| SMILES | EC50 |
| --- | --- |
| O=C(O)c1cc(F)c2nc(CN3CC[C@@H](c4ccnc(COc5ccc(Cl)cc5F)c4)C3)n(C[C@@H]3CCO3)c2c1 [Compound 428, 2-{[(3S)-3-{2-[(4-chloro-2-fluorophenoxy)methyl]pyridin-4-yl}pyrrolidin-1-yl]methyl}-4-fluoro-1-{[(2S)-oxetan-2-yl]methyl}-1H-1,3-benzodiazole-6-carboxylic acid] | < 50 nM |
| O=C(O)c1ccc2nc(CN3CC=C(c4cc(COc5ccc(Cl)cc5F)ccn4)C3)n(Cc3ncco3)c2c1 [Compound 394, 2-[(3-{4-[(4-chloro-2-fluorophenoxy)methyl]pyridin-2-yl}-2,5-dihydro-1H-pyrrol-1-yl)methyl]-1-[(1,3-oxazol-2-yl)methyl]-1H-1,3-benzodiazole-6-carboxylic acid] | 50 to 500 nM |
| N#Cc1ccc(OCc2nc(N3CC[C@H](Cc4nc5c(F)cc(C(=O)O)cc5n4C[C@@H]4CCO4)C3)ccc2F)c(F)c1 [Compound 529] | < 50 nM |
| N#Cc1ccc(OCc2cccc([C@@H]3CCN(Cc4nc5c(F)cc(C(=O)O)cc5n4C[C@@H]4CCO4)C3)c2)c(F)c1 [Compound 445, 2-{[(3S)-3-{3-[(4-cyano-2-fluorophenoxy)methyl]phenyl}pyrrolidin-1-yl]methyl}-4-fluoro-1-{[(2S)-oxetan-2-yl]methyl}-1H-1,3-benzodiazole-6-carboxylic acid] | < 50 nM |
| O=C(O)c1ccc2nc(CN3CC(Cc4ccnc(COc5ccc(Cl)cc5Cl)c4)C3)n(Cc3ncco3)c2c1 [Compound 181, 2-{[3-({2-[(2,4-dichlorophenoxy)methyl]pyridin-4-yl}methyl)azetidin-1-yl]methyl}-1-[(1,3-oxazol-2-yl)methyl]-1H-1,3-benzodiazole-6-carboxylic acid] | < 50 nM |
| N#Cc1ccc(OCc2nccc(C3=CCN(Cc4nc5ccc(C(=O)O)cc5n4C[C@@H]4CCO4)C3)n2)c(F)c1 [Example 395, (S)-2-((3-(2-((4-Cyano-2-fluorophenoxy)methyl)pyrimidin-4-yl)-2,5-dihydro-1H-pyrrol-1-yl)methyl)-1-(oxetan-2-ylmethyl)-1H-benzo[d]imidazole-6-carboxylic acid] | < 50 nM |
| O=C(O)c1ccc2nc(CN3CC(Oc4cccc(COc5ccc(Cl)cc5Cl)c4)C3)n(C[C@@H]3CCO3)c2c1 [Example 192, (S)-2-((3-(3-((2,4-Dichlorophenoxy)methyl)phenoxy)azetidin-1-yl)methyl)-1-(oxetan-2-ylmethyl)-1H-benzo[d]imidazole-6-carboxylic acid] | < 50 nM |
| O=C(O)c1ccc2nc(Cc3cc(F)c(Oc4ccnc(COc5ccc(Cl)cc5F)c4)cc3F)n(C[C@@H]3CCO3)c2c1 [Compound 536, (S)-2-(4-((2-((4-Chloro-2-fluorophenoxy)methyl)pyridin-4-yl)oxy)-2,5-difluorobenzyl)-1-(oxetan-2-ylmethyl)-1H-benzo[d]imidazole-6-carboxylic acid] | < 50 nM |
| O=C(O)c1ccc2nc(CN3CCC(c4cc(COc5ccc(Cl)cc5F)ccn4)C3)n(Cc3ncco3)c2c1 (stereo not shown) [Compound 398, 2-[(3-{4-[(4-chloro-2-fluorophenoxy)methyl]pyridin-2-yl}pyrrolidin-1-yl)methyl]-1-[(1,3-oxazol-2-yl)methyl]-1H-1,3-benzodiazole-6-carboxylic acid] | < 50 nM |
| C[C@H]1[C@@H](Oc2ccnc(COc3ccc(C#N)cc3F)n2)CN1Cc1nc2c(F)cc(C(=O)O)cc2n1C[C@@H]1CCO1 [Compound 546, 2-{[(2S,3S)-3-({2-[(4-cyano-2-fluorophenoxy)methyl]pyrimidin-4-yl}oxy)-2-methylazetidin-1-yl]methyl}-4-fluoro-1-{[(2S)-oxetan-2-yl]methyl}-1H-1,3-benzodiazole-6-carboxylic acid] | < 50 nM |
| CCn1cncc1Cn1c(CN2CC3(CC(Oc4cccc(COc5ccc(Cl)cc5Cl)c4)C3)C2)nc2ccc(C(=O)O)cc21 [Compound 235, 2-[(6-{3-[(2,4-dichlorophenoxy)methyl]phenoxy}-2-azaspiro[3.3]heptan-2-yl)methyl]-1-[(1-ethyl-1H-imidazol-5-yl)methyl]-1H-1,3-benzodiazole-6-carboxylic acid] | 50 to 500 nM |
| O=C(O)c1ccc2nc(CN3CCC(c4cc(F)cc(COc5ccc(Cl)cc5F)c4)C3)n(C[C@@H]3CCO3)c2c1 (stereo partly drawn) [Compound 420, 2-[(3-{3-[(4-chloro-2-fluorophenoxy)methyl]-5-fluorophenyl}pyrrolidin-1-yl)methyl]-1-{[(2S)-oxetan-2-yl]methyl}-1H-1,3-benzodiazole-6-carboxylic acid] | < 50 nM |
| N#Cc1ccc(OCc2nc(C3CCN(Cc4nc5ccc(C(=O)O)cc5n4C[C@@H]4CCO4)C3)ccc2F)c(F)c1 (stereo partly drawn) [Compound 410, 2-[(3-{6-[(4-cyano-2-fluorophenoxy)methyl]-5-fluoropyridin-2-yl}pyrrolidin-1-yl)methyl]-1-{[(2S)-oxetan-2-yl]methyl}-1H-1,3-benzodiazole-6-carboxylic acid] | < 50 nM |
| CCn1cncc1Cn1c(CN2C[C@@H](Oc3ccnc(COc4ccc(Cl)cc4Cl)c3)[C@@H]2C)nc2ccc(C(=O)O)cc21 [Compound 293, 2-{[(2S,3R)-3-({2-[(2,4-dichlorophenoxy)methyl]pyridin-4-yl}oxy)-2-methylazetidin-1-yl]methyl}-1-[(1-ethyl-1H-imidazol-5-yl)methyl]-1H-1,3-benzodiazole-6-carboxylic acid] | < 50 nM |
| N#CCC1(Cn2c(Cc3ccc(Oc4cccc(COc5ccc(C#N)cc5F)n4)cc3F)nc3c(F)cc(C(=O)O)cc32)CC1 [Compound 469, 2-{[4-({6-[(4-cyano-2-fluorophenoxy)methyl]pyridin-2-yl}oxy)-2-fluorophenyl]methyl}-1-{[1-(cyanomethyl)cyclopropyl]methyl}-4-fluoro-1H-1,3-benzodiazole-6-carboxylic acid] | < 50 nM |
| O=C(O)c1ccc2nc(Cc3ccc(Oc4ccnc(COc5ccc(Cl)cc5F)c4)cc3F)n(C[C@@H]3CCO3)c2c1 [Compound 466, 2-{[4-({2-[(4-chloro-2-fluorophenoxy)methyl]pyridin-4-yl}oxy)-2-fluorophenyl]methyl}-1-{[(2S)-oxetan-2-yl]methyl}-1H-1,3-bcnzodiazole-6-carboxylic acid] | < 50 nM |

The next lines start with the values.

| EC50 | SMILES |
| --- | --- |
| < 50 nM | N#CCC1(Cn2c(CN3CC=C(c4ccc(F)c(COc5ccc(C#N)cc5F)n4)C3)nc3ccc(C(=O)O)cc32)CC1 [Compound 422, 2-[(3-{6-[(4-cyano-2-fluorophenoxy)methyl]-5-fluoropyridin-2-yl}-2,5-dihydro-1H-pyrrol-1-yl)methyl]-1-{[l-(cyanomethyl)cyclopropyl]methyl}-1H-1,3-benzodiazole-6-carboxylic acid] |
| < 50 nM | CCn1cncc1Cn1c(CN2CC(Oc3ccnc(COc4ccc(Cl)cc4C#N)c3)C2)nc2ccc(C(=O)O)cc21 [Compound 211, 2-{[3-({2-[(4-chloro-2-cyanophenoxy)methyl]pyridin-4-yl}oxy)azetidin-1-yl]methyl}-1-[(1-ethyl-1H-imidazol-5-yl)methyl]-1H-1,3-benzodiazole-6-carboxylic acid] |
| < 50 nM | N#CCC1(Cn2c(CN3CC[C@@H](c4ccnc(COc5ccc(Cl)cc5F)c4)C3)nc3c(F)cc(C(=O)O)cc32)CC1 [Compound 432, 2-{[(3S)-3-{2-[(4-chloro-2-fluorophenoxy)methyl]pyridin-4-yl}pyrrolidin-1-yl]methyl}-1-{[1-(cyanomethyl)cyclopropyl]methyl}-4-fluoro-1H-1,3-benzodiazole-6-carboxylic acid] |
| < 50 nM | N#Cc1ccc(OCc2nc(N3CC[C@H](Cc4nc5ccc(C(=O)O)cc5n4C[C@@H]4CCO4)C3)ccc2F)c(F)c1 [Compound 530] |
| 50 to 500 nM | N#CCC1(Cn2c(CN3CC[C@H](c4ccnc(COc5ccc(Cl)cc5F)c4)C3)nc3c(F)cc(C(=O)O)cc32)CC1 [Compound 434, 2-{[(3R)-3-{2-[(4-chloro-2-fluorophenoxy)methyl]pyridin-4-yl}pyrrolidin-1-yl]methyl}-1-{[1-(cyanomethyl)cyclopropyl]methyl}-4-fluoro-1H-1,3-benzodiazole-6-carboxylic acid] |
| < 50 nM | N#Cc1ccc(OCc2nc([C@@H]3CCN(Cc4nc5c(F)cc(C(=O)O)cc5n4C[C@@H]4CCO4)C3)ccc2F)c(F)c1 [Compound 454, 2-{[(3R)-3-{6-[(4-cyano-2-fluorophenoxy)methyl]-5-fluoropyridin-2-yl}pyrrolidin-1-yl]methyl}-4-fluoro-1-{[(2S)-oxetan-2-yl]methyl}-1H-1,3-benzodiazole-6-carboxylic acid] |
| < 50 nM | O=C(O)c1ccc2nc(CN3CC=C(c4nc(COc5ccc(Cl)cc5F)ccc4F)C3)n(C[C@@H]3CCO3)c2c1 [Compound 436] |
| < 50 nM | O=C(O)c1ccc2nc(CN3CCC(c4cccc(COc5ccc(Cl)cc5Cl)c4)C3)n(C[C@@H]3CCO3)c2c1 (stereo partly drawn) [Example 383, 2-((3-(3-((2,4-Dichlorophenoxy)methyl)phenyl)pyrrolidin-1-yl)methyl)-1-(((S)-oxetan-2-yl)methyl)-1H-benzo[d]imidazole-6-carboxylic acid] |
